Measurements taken from patent US8158657B2, “Heterocycles substituted pyridine derivatives and antifungal agent containing thereof” (Eisai R&D Management Co., Ltd., priority 2005, dated 2012).
Values after ≈ are worked out from the molar mass of the structure shown.

Columns and labels:
[1] = test system: A. fumigatus Tsukuba strain; assay: Anti-Aspergillus activity, MIC measurement; format: cell-based; conditions: RPMI1640, 42-48 hours at 35° C., visual inspection, read-out: Anti-Aspergillus Activity (minimum inhibitory concentration, MIC)
Description: (§1) For the C. albicans CAF2-1 strain, a fungal suspension from a standing culture for 48 hours at 30° C. in a Sabouraud dextrose liquid culture medium (SDB) was diluted with RPMI1640 medium to adjust a fungal suspension of 1.2×10^3 cells/mL. For the A. fumigatus Tsukuba strain, −80° C. stored strain was diluted with RPMI1640 medium to adjust to a fungal suspension of 4.5×10^3 cells/mL.
(§2) Using a U-bottomed 96 well plate, 8 samples/plate (A to H) of sample dilution solutions were prepared. On the 2nd to 12th rows were dispensed 10 μL of dimethyl sulfoxide solution. Weighted sample was dissolved in dimethyl sulfoxide to prepare a 2.5 mg/mL solution, 20 μL of this solution was added to the first row of the prepared plate, and 12 steps of two-fold step dilutions (10 μL of solution+10 μL of dimethyl sulfoxide solution) were performed on the plate. This sample dilution solution was dispensed in the amount of 1 μL to a flat-bottomed 96 well plate for MIC measurement to prepare a sample dilution plate.
(§3) The fungal suspension prepared in (1) was used in the amount of 99 μL/well to inoculate the flat-bottomed 96 well plate containing 1 μL/well of the test compound dilution prepared in (2), and a standing culture was carried out aerobically for 42-48 hours at 35° C.

[2] = test system: C. albicans CAF2-1 strain; assay: Anti-Candida activity, MIC measurement; format: cell-based; conditions: CAF21STRAIN, C. albicans CAF2-1, RPMI1640, 42-48 hours at 35° C., visual inspection, read-out: Anti-Candida Activity (minimum inhibitory concentration, MIC)
Description: as §1, §2, §3

SMILES	MIC [1]	MIC [2]
Nc1ncccc1-c1cc(Cc2ccc(OC3CCCCC3)cc2)no1 [Example 79, 3-(3-(4-Cyclohexyloxy-benzyl)-isoxazol-5-yl)-pyridin-2-ylamine]	6.25 µg/mL (≈ 17.9 µM)	1.56 µg/mL (≈ 4.46 µM)
Nc1ncccc1-c1cc(Cc2ccc(OC3CCCC3)cc2)no1 [Example 78, 3-(3-(4-Cyclopentyloxy-benzyl)-isoxazol-5-yl)-pyridin-2-ylamine]	1.56 µg/mL (≈ 4.65 µM)	0.78 µg/mL (≈ 2.33 µM)
Nc1ccc(-c2cc(Cc3ccc(OCc4cc(Cl)ccn4)cc3)no2)cn1 [Example 183, 5-(3-(4-(4-Chloro-pyridin-2-ylmethoxy)-benzyl)-isoxazol-5-yl)-pyridin-2-ylamine]	0.78 µg/mL (≈ 1.99 µM)	0.2 µg/mL (≈ 0.509 µM)
Cc1cccc(COc2ccc(Cc3cc(-c4ccc(N)nc4N)on3)cc2)n1 [Example 23, 3-(3-(4-(6-Methyl-pyridin-2-ylmethoxy)-benzyl)-isoxazol-5-yl)-pyridin-2,6-diamine]	1.56 µg/mL (≈ 4.03 µM)	0.78 µg/mL (≈ 2.01 µM)
Nc1ncc(F)cc1-c1cc(Cc2ccc(OCc3ccc(F)cn3)cc2)no1 [Example 174, 5-Fluoro-3-(3-(4-(5-fluoro-pyridin-2-ylmethoxy)-benzyl)-isoxazol-5-yl)pyridin-2-ylamine]	1.56 µg/mL (≈ 3.96 µM)	6.25 µg/mL (≈ 15.8 µM)
Nc1ccc(-c2cc(Cc3ccc(Cc4ccc(F)cc4)o3)no2)c(N)n1 [Example 221, 3-(3-(5-(4-Fluoro-benzyl)-furan-2-ylmethyl)-isoxazol-5-yl)-pyridin-2,6-diamine]	0.39 µg/mL (≈ 1.07 µM)	1.56 µg/mL (≈ 4.28 µM)
Nc1ccc(-c2cc(Cc3ccc(OCc4ccccn4)c(F)c3)no2)c(N)n1 [Example 150, 3-(3-(3-Fluoro-4-(pyridin-2-ylmethoxy)-benzyl)-isoxazol-5-yl)-pyridin-2,6-diamine]	0.78 µg/mL (≈ 1.99 µM)	0.39 µg/mL (≈ 0.996 µM)
Nc1ncccc1-c1cc(Cc2ccc(COc3ccccn3)cc2F)no1 [Example 204, 3-(3-(2-Fluoro-4-(pyridin-2-yloxymethyl)-benzyl)-isoxazol-5-yl)-pyridin-2-ylamine]	0.39 µg/mL (≈ 1.04 µM)	0.2 µg/mL (≈ 0.531 µM)
Nc1ccc(-c2cc(Cc3ccc(Oc4cccnc4)cc3)no2)c(N)n1 [Example 138, 3-(3-(4-(Pyridin-3-yloxy)-benzyl)-isoxazol-5-yl)-pyridin-2,6-diamine]	0.78 µg/mL (≈ 2.17 µM)	0.78 µg/mL (≈ 2.17 µM)
Nc1ccc(-c2cc(Cc3ccc(Oc4cccnc4)nc3)no2)c(N)n1 [Example 164, 3-(3-(6-(Pyridin-3-yloxy)-pyridin-3-ylmethyl)-isoxazol-5-yl)-pyridin-2,6-diamine]	6.25 µg/mL (≈ 17.3 µM)	6.25 µg/mL (≈ 17.3 µM)
Nc1ncccc1-c1cc(Cc2ccc(COc3ccccc3)cc2)no1 [Example 86, 3-(3-(4-Phenoxymethyl-benzyl)-isoxazol-5-yl)-pyridin-2-ylamine]	0.2 µg/mL (≈ 0.56 µM)	0.05 µg/mL (≈ 0.14 µM)
Nc1ncccc1-c1cc(Cc2ccc(OCC3CC3)cc2)no1 [Example 8, 3-(3-(4-Cyclopropylmethoxy-benzyl)-isoxazol-5-yl)-pyridin-2-ylamine]	0.78 µg/mL (≈ 2.43 µM)	1.56 µg/mL (≈ 4.85 µM)
Nc1ccc(-c2cc(Cc3cccc(OCC4CC4)c3)no2)c(N)n1 [Example 125, 3-(3-(3-Cyclopropylmethoxy-benzyl)-isoxazol-5-yl)-pyridin-2,6-diamine]	0.39 µg/mL (≈ 1.16 µM)	0.1 µg/mL (≈ 0.297 µM)
Nc1nc(NCCO)ccc1-c1cc(Cc2ccc(OCc3ccccc3)nc2)no1 [Example 225, 2-(6-Amino-5-(3-(6-benzyloxy-pyridin-3-ylmethyl)-isoxazol-5-yl)-pyridin-2-ylamino)-ethanol]	3.13 µg/mL (≈ 7.5 µM)	0.78 µg/mL (≈ 1.87 µM)
Nc1ncccc1-c1cc(Cc2ccc(OCc3ccc(F)cn3)cc2F)no1 [Example 96, 3-(3-(2-Fluoro-4-(5-fluoro-pyridin-2-ylmethoxy)-benzyl)-isoxazol-5-yl)pyridin-2-ylamine]	0.78 µg/mL (≈ 1.98 µM)	3.13 µg/mL (≈ 7.94 µM)
Nc1ncccc1-c1cc(Cc2ccc(OCc3ccc(F)cn3)c(F)c2)no1 [Example 94, 3-(3-(3-Fluoro-4-(5-fluoro-pyridin-2-ylmethoxy)-benzyl)-isoxazol-5-yl)pyridin-2-ylamine]	0.39 µg/mL (≈ 0.989 µM)	0.78 µg/mL (≈ 1.98 µM)
COCC(=O)Nc1ccc(-c2cc(Cc3ccc(OCc4ccccc4)nc3)no2)c(N)n1 [Example 226, N-(6-Amino-5-(3-(6-benzyloxy-pyridin-3-ylmethyl)-isoxazol-5-yl)-pyridin-2-yl)-2-methoxy-acetamide]	0.39 µg/mL (≈ 0.875 µM)	0.39 µg/mL (≈ 0.875 µM)
Nc1ncc(F)cc1-c1cc(Cc2ccc(OCc3ccccc3)cc2)no1 [Example 173, 3-(3-(4-Benzyloxy-benzyl)-isoxazol-5-yl)-5-fluoro-pyridin-2-ylamine]	0.78 µg/mL (≈ 2.08 µM)	1.56 µg/mL (≈ 4.16 µM)
Nc1ncccc1-c1cc(Cc2ccc(OCc3ccccc3F)cc2)no1 [Example 5, 3-(3-(4-(2-Fluoro-benzyloxy)-benzyl)-isoxazol-5-yl)-pyridin-2-ylamine]	0.39 µg/mL (≈ 1.04 µM)	0.39 µg/mL (≈ 1.04 µM)
Cc1ccc(OCc2ccc(Cc3cc(-c4ccc(N)nc4N)on3)cc2)nc1 [Example 103, 3-(3-(4-(5-Methyl-pyridin-2-yloxymethyl)-benzyl)-isoxazol-5-yl)-pyridin-2,6-diamine]	0.78 µg/mL (≈ 2.01 µM)	1.56 µg/mL (≈ 4.03 µM)
Nc1ccc(-c2cnn(Cc3ccc(OCc4ccccc4)nc3)c2)c(N)n1 [Example 198, 3-(1-(6-Benzyloxy-pyridin-3-ylmethyl)-1H-pyrazol-4-yl)-pyridin-2,6-diamine]	1.56 µg/mL (≈ 4.19 µM)	0.78 µg/mL (≈ 2.09 µM)
CCCCOc1ccc(Cc2cc(-c3ccc(N)nc3N)on2)cc1 [Example 126, 3-(3-(4-Butoxy-benzyl)-isoxazol-5-yl)-pyridin-2,6-diamine]	0.39 µg/mL (≈ 1.15 µM)	1.56 µg/mL (≈ 4.61 µM)
Nc1ccc(-c2cc(Cc3ccc(Oc4ccccc4F)nc3)no2)cn1 [Example 185, 5-(3-(6-(2-Fluoro-phenoxy)-pyridin-3-ylmethyl)-isoxazol-5-yl)-pyridin-2-ylamine]	0.78 µg/mL (≈ 2.15 µM)	0.78 µg/mL (≈ 2.15 µM)
Nc1ncccc1-c1cc(Cc2cccc(Oc3ccccc3)c2)no1 [Example 64, 3-(3-(3-Phenoxy-benzyl)-isoxazol-5-yl)-pyridin-2-ylamine]	0.78 µg/mL (≈ 2.27 µM)	0.2 µg/mL (≈ 0.582 µM)
Nc1ccc(-c2cc(Cc3ccc(OCc4ccc(F)cc4)cc3)no2)c(N)n1 [Example 20, 3-(3-(4-(4-Fluoro-benzyloxy)-benzyl)-isoxazol-5-yl)-pyridin-2,6-diamine]	0.2 µg/mL (≈ 0.512 µM)	0.78 µg/mL (≈ 2 µM)
Nc1ncccc1-c1cc(Cc2ccc(Sc3ccccc3)nc2)no1 [Example 97, 3-(3-(6-Phenylsulfanyl-pyridin-3-ylmethyl)-isoxazol-5-yl)-pyridin-2-ylamine]	0.2 µg/mL (≈ 0.555 µM)	0.39 µg/mL (≈ 1.08 µM)
Nc1ccc(-c2cc(Cc3ccc(COc4cc(F)ccn4)cc3)no2)c(N)n1 [Example 117, 3-(3-(4-(4-Fluoro-pyridin-2-yloxymethyl)-benzyl)-isoxazol-5-yl)-pyridin-2,6-diamine]	0.78 µg/mL (≈ 1.99 µM)	1.56 µg/mL (≈ 3.99 µM)
Nc1ccc(-c2cc(Cc3cccc(OCc4ccccn4)c3)no2)c(N)n1 [Example 118, 3-(3-(3-(Pyridin-2-ylmethoxy)-benzyl)-isoxazol-5-yl)-pyridin-2,6-diamine]	3.13 µg/mL (≈ 8.38 µM)	0.78 µg/mL (≈ 2.09 µM)
COC(=O)c1cccc(COc2ccc(Cc3cc(-c4ccc(N)nc4N)on3)cc2)c1 [Example 213, 3-(4-(5-(2,6-Diamino-pyridin-3-yl)-isoxazol-3-ylmethyl)-phenoxymethyl)benzoic acid methyl ester]	1.56 µg/mL (≈ 3.62 µM)	6.25 µg/mL (≈ 14.5 µM)
